15 molecules from ChEMBL document CHEMBL1201862, “PubChem BioAssay data set” (2004) can be followed below.

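Where inhibition never reached the appropriate level, the endpoint shown equals the highest concentration tested. Otherwise, values were interpolated linearly from a five-concentration, 48-hour dose response in 96-well plates. GI50 is the concentration that inhibits growth by half.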 Activity calls are given as the source filed them. Rule as the data show it: active = GI50 up to about 1.1 µM and inactive = higher. Bounds are passed on as bounds.

Test systems include SNB-75; LOX IMVI; K562; A549; NCI-H226; NCI-H23; TK-10; NCI-H522; EKVX; CCRF-CEM; HCT-15; SK-MEL-2; SK-MEL-5; SNB-19; KM12; RXF 393.
What all share (test): NCI tumour cell line growth inhibition, 48 h

For `Nc1nc(N)c(CCCCc2ccccc2)c(/C=C/c2ccc([N+](=O)[O-])cc2)n1`, the GI50 is 2.47 µM (inactive) in the experiment with SNB-75; 1.85 µM (inactive) in the experiment on LOX IMVI; 0.348 µM (active) with K562; 0.388 µM (active) in the experiment on A549; 26.1 µM (inactive) with NCI-H226; 3.86 µM (inactive) in the experiment on NCI-H23. The GI50 was 1.8 µM (inactive) with TK-10; 2.24 µM (inactive) with NCI-H522; 4.44 µM (inactive) with EKVX; 1.69 µM (inactive) in the experiment with CCRF-CEM; 1.25 µM with HCT-15; 2.79 µM (inactive) in the experiment with SK-MEL-2. Besides, the GI50 is 2.18 µM (inactive) in the experiment on SK-MEL-5, 3.8 µM (inactive) with SNB-19 and 3.03 µM (inactive) in the experiment on KM12.

On to `CC1=C2CC[C@@]3(C)C(=CCC3O)C2(C)CCC1=O` (stereo partly specified), for which the GI50 in the experiment on SNB-75 is 83 µM (inactive); with LOX IMVI, > 100 µM (inactive); in the experiment with A549, > 100 µM (inactive); in the experiment with NCI-H226 it was > 100 µM (inactive); with TK-10 it was > 100 µM (inactive); with NCI-H522 it was > 100 µM (inactive). For the same molecule, the GI50 is 27.1 µM (inactive) in the experiment on EKVX; > 100 µM (inactive) with CCRF-CEM; > 100 µM (inactive) in the experiment with RXF 393; more than 100 µM with HCT-15; > 100 µM (inactive) in the experiment on SK-MEL-5; > 100 µM (inactive) with SNB-19. Moreover, the GI50 with KM12 is > 100 µM (inactive).

On to `Nc1ccc2ncc(Nc3ccc(F)cc3)nc2c1`, for which the GI50 in the experiment on SNB-75 is > 100 µM (inactive); in the experiment with LOX IMVI, > 100 µM (inactive); in the experiment on K562, 52.5 µM (inactive); in the experiment on A549, > 100 µM (inactive); with NCI-H226, 37.5 µM (inactive); with NCI-H23, > 100 µM (inactive). Moreover, the GI50 was > 100 µM (inactive) in the experiment with TK-10; > 100 µM (inactive) in the experiment on NCI-H522; > 100 µM (inactive) in the experiment with EKVX; 56.8 µM (inactive) with CCRF-CEM; more than 100 µM in the experiment on HCT-15; > 10 µM (inactive) with SK-MEL-2. The figures for the GI50 with SK-MEL-5, in the experiment with SNB-19 and with KM12 were 34.9 µM (inactive), > 100 µM (inactive) and 46.3 µM (inactive), respectively.

Turning to `CC(=O)Oc1c(-c2ccccc2)[nH]c2cc([N+](=O)[O-])c(/C(Cl)=C/c3ccccc3)cc12`, the GI50 in the experiment with SNB-75 was 15.6 µM (inactive); in the experiment with K562 it was 3.82 µM (inactive); with A549 it was 6.15 µM (inactive); in the experiment with NCI-H226, 4 µM (inactive); in the experiment on NCI-H23, 2.47 µM (inactive); with TK-10, 19.8 µM (inactive). The GI50 in the experiment on NCI-H522 was 4.86 µM (inactive); in the experiment on EKVX, 8.53 µM (inactive); in the experiment on CCRF-CEM, 3.61 µM (inactive); with SK-MEL-2, 9.57 µM (inactive); with SK-MEL-5, 1.89 µM (inactive); in the experiment with SNB-19, 8.97 µM (inactive). Also, in the experiment with KM12, the GI50 is 3.97 µM (inactive).

As for `C[N+](C)=c1nc(N2CCOCC2)ss1`, the GI50 in the experiment with LOX IMVI was 88.7 µM (inactive); with K562 it was > 100 µM (inactive); with A549 it was 47.3 µM (inactive); with NCI-H226 it was > 100 µM (inactive); in the experiment with NCI-H23 it was > 100 µM (inactive); with TK-10, > 100 µM (inactive). The GI50 with NCI-H522 is 13.7 µM (inactive); with EKVX, > 100 µM (inactive); in the experiment with CCRF-CEM, > 100 µM (inactive); with RXF 393, > 100 µM (inactive); in the experiment with HCT-15 it was more than 100 µM; in the experiment with SK-MEL-2 it was > 100 µM (inactive). Also, the GI50 with SK-MEL-5, with SNB-19 and in the experiment with KM12 was > 100 µM (inactive) each time.

Consider `CC#COS(=O)(=O)c1ccc(C)cc1`, for which the GI50 is 52 µM (inactive) in the experiment with LOX IMVI; 36.8 µM (inactive) in the experiment on K562; 44.3 µM (inactive) in the experiment with A549; 89.3 µM (inactive) with NCI-H226; 65.6 µM (inactive) in the experiment on NCI-H23; > 100 µM (inactive) in the experiment on TK-10. The GI50 was 49.5 µM (inactive) with NCI-H522; 53.5 µM (inactive) in the experiment with EKVX; 27.9 µM (inactive) in the experiment on CCRF-CEM; 79.8 µM with HCT-15; > 100 µM (inactive) with SK-MEL-2; 37.4 µM (inactive) in the experiment on SK-MEL-5. Moreover, the GI50 in the experiment on SNB-19 is > 100 µM (inactive); in the experiment with KM12 it was 59.2 µM (inactive).

Regarding `O=C1OC(c2ccccc2)(c2ccccc2)CC1CN1CCOCC1` (stereo unspecified), the GI50 is 13.9 µM (inactive) in the experiment on SNB-75; 11.4 µM (inactive) with LOX IMVI; 24.2 µM (inactive) in the experiment with K562; 10.7 µM (inactive) in the experiment on A549; 20.6 µM (inactive) with NCI-H23; 14.2 µM (inactive) in the experiment with TK-10. Moreover, the GI50 in the experiment on NCI-H522 is 10.2 µM (inactive); in the experiment on EKVX, 33.7 µM (inactive); with CCRF-CEM it was 2.77 µM (inactive); with HCT-15, 16.1 µM; with SK-MEL-2, 17.9 µM (inactive); in the experiment with SK-MEL-5, 29.3 µM (inactive). Also, the GI50 with SNB-19 is 44.7 µM (inactive); with KM12, 16.7 µM (inactive).

Turning to `CN(C)CCNC(=O)C1COc2cc(-c3cc(=O)c4ccccc4o3)ccc2O1` (stereo unspecified), the GI50 is 17.8 µM (inactive) in the experiment with SNB-75; 19.6 µM (inactive) in the experiment with LOX IMVI; 36.7 µM (inactive) in the experiment on K562; 16.9 µM (inactive) in the experiment with A549; 28.1 µM (inactive) in the experiment with NCI-H226; 41.1 µM (inactive) in the experiment with NCI-H23. The GI50 was 29.6 µM (inactive) in the experiment with TK-10; 16.6 µM (inactive) in the experiment with NCI-H522; 53.5 µM (inactive) in the experiment on EKVX; 30.4 µM (inactive) with CCRF-CEM; 21.4 µM (inactive) with RXF 393; 27.7 µM with HCT-15. Also, the GI50 with SK-MEL-5 was 15.2 µM (inactive); in the experiment on SNB-19, 23.1 µM (inactive).

For `Oc1ccccc1/C=N/Cc1ccco1`, the GI50 in the experiment with SNB-75, in the experiment on LOX IMVI, with K562, in the experiment with A549, in the experiment with NCI-H226 and in the experiment with NCI-H23 was > 100 µM (inactive) in each case. The GI50 in the experiment with TK-10, in the experiment on EKVX, with CCRF-CEM, with RXF 393, in the experiment on SNB-19 and in the experiment with KM12 was > 100 µM (inactive) in each case.

Regarding `C=CCC1C(=O)C(C(=O)OC)N2CCc3c([nH]c4ccccc34)C12` (stereo unspecified), the GI50 is > 100 µM (inactive) in the experiment with K562; > 100 µM (inactive) in the experiment with A549; > 100 µM (inactive) in the experiment on NCI-H23; > 100 µM (inactive) in the experiment on TK-10; 80 µM (inactive) in the experiment on NCI-H522; > 100 µM (inactive) with EKVX. Moreover, the GI50 with CCRF-CEM was 95.5 µM (inactive); with RXF 393, > 100 µM (inactive); with HCT-15, more than 100 µM; in the experiment with SK-MEL-2, > 100 µM (inactive); in the experiment on SK-MEL-5, > 100 µM (inactive); in the experiment on SNB-19, > 100 µM (inactive). In addition, the GI50 in the experiment on KM12 is > 100 µM (inactive).

On to `COc1ccc(CC(=O)NCCc2ccc(OC)c(OC)c2)cc1Br`, for which the GI50 was > 100 µM (inactive) in the experiment with LOX IMVI; > 100 µM (inactive) in the experiment with K562; > 100 µM (inactive) in the experiment on A549; 41.5 µM (inactive) in the experiment on NCI-H226; > 100 µM (inactive) in the experiment on NCI-H23; > 100 µM (inactive) with TK-10. Also, the GI50 in the experiment with NCI-H522, with EKVX, in the experiment on CCRF-CEM, in the experiment with RXF 393, in the experiment on SK-MEL-2 and with SNB-19 was > 100 µM (inactive) throughout. The GI50 in the experiment on KM12 was > 100 µM (inactive).

On to `Cc1ccccc1C(=O)Oc1ccc(OCc2ccccc2)cc1`, for which the GI50 in the experiment with SNB-75 is > 100 µM (inactive); in the experiment on LOX IMVI, 99.1 µM (inactive); in the experiment with K562 it was 47.6 µM (inactive); in the experiment with A549, 35.2 µM (inactive); in the experiment on NCI-H23 it was 66.8 µM (inactive); in the experiment with TK-10, > 100 µM (inactive). Further, the GI50 in the experiment with EKVX is > 100 µM (inactive); with CCRF-CEM, 22.2 µM (inactive); in the experiment on RXF 393, 39.1 µM (inactive); in the experiment on HCT-15 it was 38.6 µM; with SK-MEL-5, 48.6 µM (inactive); in the experiment with SNB-19, > 100 µM (inactive). Besides, the GI50 in the experiment on KM12 was > 100 µM (inactive).

`O=C(CC/C(CC(=O)c1ccc(Cl)cc1)=N/O)Nc1ccc(Cl)c(Cl)c1`: the GI50 was 26 µM (inactive) in the experiment with SNB-75; 50.4 µM (inactive) in the experiment on K562; > 100 µM (inactive) with A549; > 100 µM (inactive) in the experiment with NCI-H226; 45.5 µM (inactive) in the experiment on NCI-H23; > 100 µM (inactive) in the experiment with TK-10. In addition, the GI50 is 82.6 µM (inactive) in the experiment on NCI-H522; 10.3 µM (inactive) in the experiment on EKVX; > 100 µM (inactive) with CCRF-CEM; 48.1 µM in the experiment with HCT-15; 38.3 µM (inactive) in the experiment on SK-MEL-2; 76.2 µM (inactive) in the experiment on SK-MEL-5. Besides, the GI50 in the experiment on SNB-19 and in the experiment on KM12 was > 100 µM (inactive) throughout.

Consider `Cc1ccc(S(=O)(=O)C2=c3nc4ccccc4cc3=C3C(=O)c4ccccc4C(=O)C32)cc1` (stereo unspecified), for which the GI50 was 43.3 µM (inactive) with SNB-75; > 100 µM (inactive) in the experiment with LOX IMVI; > 100 µM (inactive) in the experiment with K562; > 100 µM (inactive) with A549; > 100 µM (inactive) in the experiment on NCI-H226; > 100 µM (inactive) with NCI-H23. For the same molecule, the GI50 in the experiment with TK-10 is > 100 µM (inactive); with NCI-H522, > 100 µM (inactive); in the experiment with EKVX, > 100 µM (inactive); in the experiment on CCRF-CEM, > 100 µM (inactive); with HCT-15 it was more than 100 µM; in the experiment with SK-MEL-2 it was > 100 µM (inactive). In addition, the GI50 was 63.2 µM (inactive) in the experiment on SK-MEL-5, > 100 µM (inactive) in the experiment with SNB-19 and > 100 µM (inactive) in the experiment on KM12.

Consider `Cc1cccc(NC2=NC(=O)C(CC(=O)Nc3cccc(C)c3C)S2)c1` (stereo unspecified), for which the GI50 in the experiment with SNB-75, with LOX IMVI, in the experiment on A549, with NCI-H226, in the experiment with NCI-H23 and with TK-10 was > 100 µM (inactive) throughout. Besides, the GI50 in the experiment with EKVX was > 100 µM (inactive); in the experiment with CCRF-CEM it was 25.8 µM (inactive); with RXF 393 it was > 100 µM (inactive); in the experiment with SK-MEL-2, > 100 µM (inactive); with SK-MEL-5 it was > 100 µM (inactive); with SNB-19, > 100 µM (inactive). Also, the GI50 in the experiment on KM12 is > 100 µM (inactive).
